In US20020010128A1, “Treatment of hyperproliferative, inflammatory and related mucocutaneous disorders using inhibitors of mevalonate synthesis and metabolism” (priority 2000, published 2002):

Columns and labels:
Murine thymic T cells = assay: Murine thymic T cell proliferation (ConA stimulation, MTT assay); format: cell-based; details: for effect of mevalonate on inhibition of T cell proliferation: presence of 1 mM mevalonate; for inhibition of T cell proliferation: murine thymic T cells, different concentrations
Protocol: Murine thymic T cells were stimulated with Concanavalin A and incubated for 72 hr, and proliferation was then assessed by measuring viable cell number using the MTT assay (OD 570 nm proportional to viable cell number). Different concentrations of mevastatin and oxysterol alone (CP compounds; Panel A) or oxysterol combined with lanolin (Panel B) were added to the cells 1 hr following ConA treatment (FIG. 2).
T cells were incubated with different concentrations of mevastatin (CP 115) alone or in the presence of 1 mM mevalonate (MA). The inhibition of T cell proliferation by mevastatin was prevented by addition of mevalonic acid, the product of the HMG-CoA reductase reaction (FIG. 3).
Murine thymic T cells were incubated with different concentrations of 25-hydroxycholesterol (CP 105; Panel A) or an oxysterol combined with lanolin (C-010; Panel B) in the absence or presence of 1 mM mevalonate (MA).
To further test this synergistic effect, T cells were incubated with different concentrations of mevastatin alone or in combination with 0.25 μg/ml 25-hydroxycholesterol (CP 105; FIG. 5, Panel A) or 10 μg/ml of an oxysterol combined with lanolin (C-010; FIG. 5, Panel B). The data was expressed as percent of control proliferation. CP 105 and C-010 inhibited T cell proliferation 14% and 28% at the indicated concentrations, respectively. Thus minimally effective concentrations of 25-hydroxycholesterol and C-0010-010 decreased the IC50 of mevastatin by a factor greater than 10-fold (FIG. 5). This experiment confirmed that the inhibition of T cell proliferation by mevastatin is advantageously potentiated by oxysterols.
Murine thymic T cells were incubated with different concentrations of an inhibitor of geranylgeranyl transferase (GGTI).

NFAT = assay: NFAT-regulated reporter gene in transiently transfected Jurkat cells; format: cell-based, human; details: for NFAT activity induced by ionomycin and dominant active ras / NFAT activity stimulated by PMA and dominant active calcineurin: Jurkat cells
Text: The effects of lovastatin on NFAT activation and IL-2 gene expression were investigated in Jurkat T cells (human leukemia T cells). Lovastatin inhibited the expression of an NFAT-regulated reporter gene in transiently transfected Jurkat cells stimulated with ionomycin and PMA or with thapsigargin + PMA.
NFAT is synergistically activated by the Ca^2+/calcineurin and PKC/ras/MAPK pathways. To gain further insight into the novel mechanism of action of lovastatin, dominant active forms of calcineurin and ras were expressed in Jurkat cells to bypass early signaling events mediated by ionomycin (i.e., Ca^2+) and PMA (i.e., PKC).

human IL-2 promoter = assay: Human IL-2 promoter activation in Jurkat cells; format: cell-based
Text: (§1) The effects of lovastatin on NFAT activation and IL-2 gene expression were investigated in Jurkat T cells (human leukemia T cells).

[1] = tested on: RSV-driven control reporter gene; assay: RSV-driven control reporter gene in Jurkat cells; format: cell-based, human
Text: as §1

IL-2 mRNA = IL-2 mRNA accumulation in stimulated Jurkat cells; format: cell-based, human; details: Jurkat cells stimulated with ionomycin and PMA
Text: (§2) Since NFAT plays a critical role in IL-2 gene transcription, the effects of lovastatin on IL-2 mRNA levels and IL-2 secretion from stimulated lymphoid cells were investigated.

IL-2 = IL-2 secretion from stimulated Jurkat cells; format: cell-based, human
Text: as §2

TNF-α = assay: TNF-alpha secretion from stimulated Jurkat cells; format: cell-based, human; details: ionomycin and PMA-stimulated Jurkat cells
[2] = tested on: RBL-2H3 mucosal mast cell line; assay: 3H-serotonin release (degranulation) from RBL-2H3 mast cells; format: cell-based
Text: The RBL-2H3 mucosal mast cell line has been used extensively to study stimulus secretion coupling. Treatment with a calcium ionophore or antigenic crosslinking of the high affinity receptor for IgE on these cells leads to degranulation and the secretion of various proinflammatory mediators, including biogenic amines such as histamine and serotonin.

[3] = tested on: DNFB-induced contact hypersensitivity in mice; assay: DNFB-induced contact hypersensitivity in mice (ear swelling); format: in vivo, mouse; details: 1% topical, applied 30 minutes or one hour after challenge, 48 hours post-challenge
Protocol: The protocol involved shaving the posterior portion of the backs of anesthetized 7-8 week old female Balb/c mice with electric clippers. […] The concentration of DNCB in the sensitizing solution ranged from 0.5% to 4% w/v or 0.1 to 0.5% for DNFB. […] Post challenge ear thickness measurements were taken at 8, 16, 24, 32, 48, 56 and 72 hours. […] However, a swelling response of at least 50% above baseline was considered reasonable.
(§3) The percent suppression for each formulation was determined at 48 hours post-challenge.

[4] = tested on: oxazolone-induced contact hypersensitivity in mice; assay: Oxazolone-induced contact hypersensitivity in mice; format: in vivo, mouse; details: topical sensitizer oxazolone instead of DNFB
Protocol: Challenging mouse ears with haptens, such as 1-chloro-2,4-dinitrobenzene (DNCB), 2,4-dinitrofluorobenzene (DNFB), or oxazolone after a 5 day sensitization phase, induced severe swelling associated with an immune response that included a memory T cell infiltrate. Maximum swelling occurred between 24 and 48 hours after challenge. Thus, DNFB, DCNB and oxazolone were considered to induce delayed contact hypersensitivity.
The protocol involved shaving the posterior portion of the backs of anesthetized 7-8 week old female Balb/c mice with electric clippers. DNCB in acetone:olive oil (4:1), DNFB in acetone alone or oxazolone (15% oxazolone in 97% acetone/3% DMSO) was applied to the shaved area in a volume of 50 μl (DNCB), 100 μl (DNFB), or 20 μl (oxazolone). The concentration of DNCB in the sensitizing solution ranged from 0.5% to 4% w/v or 0.1 to 0.5% for DNFB. Five days after sensitization, the thickness of both ears was measured with a spring-loaded micrometer and both surfaces of the ears were challenged with either 10 μl of DNCB in acetone:olive oil ranging in concentration from 0.25%-2.5% w/v, 10 μl of DNFB in acetone at 0.1%, 10 μl 2% oxazolone in 97% acetone/3% DMSO, or vehicle alone. Post challenge ear thickness measurements were taken at 8, 16, 24, 32, 48, 56 and 72 hours. […]
as §3

Asthma patients = assay: Treatment of asthma patients with aerosolized lovastatin; format: in vivo, human; details: aerosolized form or nasal inhaler
[5] = tested on: TPA-induced ear swelling in mice; assay: TPA-induced ear swelling, mouse acute irritant dermatitis model; format: in vivo
Protocol: Mevastatin was tested topically at 0.5% with several oxysterols known to downregulate HMG-CoA reductase expression, including 25-hydroxycholesterol, in the mouse acute irritant dermatitis model. TPA was applied topically to the ears of mice and the resultant swelling response was measured 24 hr later. Compounds or vehicle alone were topically applied to ears 1 and 6 hr following TPA treatment. The data was expressed as a percent inhibition of the swelling response in the presence of compounds as compared to ears treated with vehicle only.
The phorbol ester 12-0-tetradecanoyl-13-phorbol acetate (TPA) is the active ingredient in […]. TPA induced skin inflammation peaked between 24 and 30 hours when the ear was the target and between 8 and 16 hours when the flank was the target. These two alternative targets allowed to determine both the short and the longer term activity of different compounds in suppressing TPA-induced inflammation. […]
The model systems described in Example 9 were employed, using TPA challenge as a model for acute inflammation. […] The percent suppression for each formulation was determined as described in Example 9 at 30 hours post-challenge (for TPA). Results are reported as the percent suppression of inflammation compared to untreated controls, as measured by ear thickness.

**Q.** For `C[C@H](CCCC(C)(C)O)[C@H]1CC[C@H]2[C@@H]3CC=C4C[C@@H](O)CC[C@]4(C)[C@H]3CC[C@]12C` [25-hydroxycholesterol], which inhibition at 0.25 µg/mL (Murine thymic T cells; Mus musculus, T-cell, 0.25 μg/ml) is on record?
**A.** Its inhibition at 0.25 µg/mL is 14%.

**Q.** What about the “effect of mevalonate on inhibition of T cell proliferation” value (Murine thymic T cells) of the same compound?
**A.** The value was “not prevented by mevalonic acid”.

**Q.** How did the “inhibition of T cell proliferation” value (Murine thymic T cells) turn out when `COC(=O)[C@H](CC(C)C)NC(=O)c1ccc(NC[C@@H](N)CS)cc1-c1ccccc1` [GGTI-286] was run?
**A.** The value was “Dose-dependent inhibition”.

**Q.** Which “NFAT activity induced by ionomycin and dominant active ras” value (NFAT) does the source give for `CN(C)CCCn1cc(C2=C(c3c[nH]c4ccccc34)C(=O)NC2=O)c2ccccc21` [Gö6850] here?
**A.** The value was “inactive”.

**Q.** And the “NFAT activity stimulated by PMA and dominant active calcineurin” value (NFAT)?
**A.** Its value is “inhibited”.

**Q.** For `CC[C@H](C)C(=O)O[C@H]1C[C@@H](C)C=C2C=C[C@H](C)[C@H](CC[C@@H]3C[C@@H](O)CC(=O)O3)[C@H]21` [lovastatin], which “NFAT activity induced by ionomycin and dominant active ras” value (NFAT) is on record?
**A.** The value was “strongly inhibited”.

**Q.** And the “NFAT activity stimulated by PMA and dominant active calcineurin” value (NFAT)?
**A.** The value was “relatively insensitive”.

**Q.** And the “expression of NFAT-regulated reporter gene” value (NFAT; Jurkat cells stimulated with ionomycin and PMA or thapsigargin + PMA)?
**A.** The value was “inhibited”.

**Q.** And the “effect of mevalonic acid on inhibition of NFAT reporter activity” value (NFAT; preincubation of Jurkat cells with mevalonic acid)?
**A.** The value was “did not reverse”.

**Q.** And the IC50 (NFAT; stated as similar to the IL-2 secretion IC50, read-out: IC50, inhibition of NFAT-dependent reporter activity)?
**A.** The IC50 was about 12 µM.

**Q.** And the “activation of the human IL-2 promoter” value (human IL-2 promoter)?
**A.** Its value is “inhibited activation”.

**Q.** What about the “transcription from RSV-driven control reporter gene” value [1] of the same compound?
**A.** Its value is “did not affect”.

**Q.** What about the “IL-2 mRNA accumulation” value (IL-2 mRNA) of the same compound?
**A.** The value was “inhibited”.

**Q.** And the IC50 (IL-2; Jurkat cells stimulated with ionomycin and PMA, read-out: IC50, inhibition of IL-2 secretion)?
**A.** The IC50 was 12 µM.

**Q.** What about the “effect of mevalonic acid on inhibition of IL-2 secretion” value (IL-2; addition of mevalonic acid) of the same compound?
**A.** Its value is “not reversed”.

**Q.** What about the TNF-α secretion (TNF-α) of the same compound?
**A.** The TNF-α secretion was “inhibit”.

**Q.** And the “release of 3H-serotonin” value ([2]; RBL-2H3 cells stimulated with antigen or calcium ionophore, dose-dependent)?
**A.** Its value is “inhibited”.

**Q.** What about the “effect of mevalonic acid on inhibition of 3H-serotonin release” value ([2]; co-incubation with mevalonic acid) of the same compound?
**A.** The value was “not reversed”.

**Q.** What about the “suppression of DNFB-induced delayed contact hypersensitivity (ear swelling)” value [3] of the same compound?
**A.** Its value is “reduced delayed contact hypersensitivity”.

**Q.** What about the “suppression of oxazolone-induced contact hypersensitivity” value [4] of the same compound?
**A.** The value was “dose-dependent”.

**Q.** What about the “relief of lung constriction and inflammation in asthma patients” value (Asthma patients) of the same compound?
**A.** The value was “more effective relief of lung constriction and inflammation”.

**Q.** What does the source list for `CC[C@H](C)C(=O)O[C@H]1CCC=C2C=C[C@H](C)[C@H](CC[C@@H]3C[C@@H](O)CC(=O)O3)[C@H]21` [mevastatin]?
**A.** percent suppression of TPA-induced acute inflammation, measured by ear thickness ([5]; 0.5% in ethanol/cyclohexane (1:1), applied 30 minutes or one hour after challenge, 30 hours post-challenge): 58%; inhibition of TPA-induced ear swelling ([5]; 0.5% topical, applied 1 and 6 hr after TPA, swelling measured 24 hr later): significantly inhibited; inhibition of T cell proliferation (Murine thymic T cells): potently inhibit; effect of mevalonate on inhibition of T cell proliferation (Murine thymic T cells): reversed by mevalonate
